Consider 10 molecules from paper PMC6152194 (Molecules : A Journal of Synthetic Chemistry and Natural …, 2017).

In assay [1] the target is T1, horse BChE (Equus caballus, UniProt P81908).
T1 construct: purchased Worthington Biochemical Corporation
Conditions: hydrolysis of BSCh by horse BChE, same conditions; cited from earlier work.

Assay [2] concerns the target T1, horse BChE. Kind of assay: biochemical. The format is biochemical. Conditions: for Kon: pH 7.0; for type of inhibition: hydrolysis of 50 μM BSCh, progress curves to 600 s. From the text: Purified horse BChE was from Worthington Biochemical Corporation, dithio-bis-di-nitro benzoic acid and butyrylthiocholine iodide (BSCh) were from Sigma, tetramethylammonium iodide (TMA), tetraethylammonium iodide (TEA), edrophonium chloride (EDR), and methanesulfonylfluoride (MSF) were from BDH; decamethonium bromide (DME) was from Koch Light Laboratories; sodium fluoride and d-Tubocurarine were from Fluka AG. N-((1-benzylpiperidin-3-yl)methyl)-N-methylnaphthalene-2-sulfonamide (942) was synthesized in the Faculty of Pharmacy, University of Ljubljana (Ljubljana, Slovenia). All other reagents used were of analytical grade. The experiments were carried out at 25 °C in 25 mM phosphate buffer, pH 7.0.
A series of compounds were tested by measuring the progress curves for BSCh hydrolysis by horse BChE in the absence and presence of each compound at a single concentration over 10 min, in a 0.6 mL cuvette, using the method of Ellman et al.. […] The concentration of horse BChE, which was always added last, was ~1 nM, for hydrolysis of 50 μM BSCh to completion (in most cases), in the presence of 1 mM dithio-bis-di-nitro benzoic acid. Reaching the plateau was important to get an exact estimate of the actual initial BSCh concentration. This was achieved by conversion of the change in absorbance at 412 nm of the resulting thio-nitro benzoate, using a molar absorption coefficient of 13,800 mol^−1 cm^−1. All of the measurements were conducted using a conventional spectrophotometer (Lambda 45/Vis; Perkin-Elmer), and a 10-s lag period was added before the start of each measurement. The progress curves were then extrapolated to start at the origin prior to the analysis.
The progress-curve analysis was performed using the ENZO web application (Figure 2), implemented at www.enzo.cmm.ki.si. For rapid determination of the kinetics mechanisms and parameters, the Van Slyke–Cullen reaction scheme for substrate hydrolysis by horse BChE was combined with a reversible competitive inhibition mechanism, as expected for active-site-directed ligands. […] In the initial evaluation, all of the second-order binding rate constants (kon’s), although not the constant for MSF, were set to the diffusion rate-limited value of 2 ×10^8 M^−1 s^−1. Therefore, only the first-order dissociation rate constants, together with the substrate specificity constant kcat/Km, the initial substrate concentration, and the added horse BChE active-site concentration, had to be evaluated. The kcat of 663 s^−1 for the hydrolysis of BSCh by horse BChE was taken from a previous study performed under the same conditions.
Therefore, a similar experiment was performed, but in the presence of three additional sodium fluoride concentrations (0.25, 1, 2.5 mM). Each of these measurements was performed twice in a row to determine the reliability of the data obtained. The progress curve analysis was then performed using four types of classical inhibition mechanisms: competitive, uncompetitive, non-competitive, and mixed. Again, a 10-s lag period was added to the time-course of each measurement prior to the analysis using the ENZO web application.

[3] abbreviates: 50 μM BSCh, 25 °C, 25 mM phosphate buffer pH 7.0, single progress curve, competitive mechanism, read-out: Ki.
Setting [4] is: slow isomerization step after instantaneous binding, 50 μM BSCh.

Structures are written as SMILES. “And” between values parts separate entries of the source, which are not always exact repeats. Equal entries are not always repeated. Where two headings read alike, the source gives them in different places.

T1 sequence (P81908 whole entry): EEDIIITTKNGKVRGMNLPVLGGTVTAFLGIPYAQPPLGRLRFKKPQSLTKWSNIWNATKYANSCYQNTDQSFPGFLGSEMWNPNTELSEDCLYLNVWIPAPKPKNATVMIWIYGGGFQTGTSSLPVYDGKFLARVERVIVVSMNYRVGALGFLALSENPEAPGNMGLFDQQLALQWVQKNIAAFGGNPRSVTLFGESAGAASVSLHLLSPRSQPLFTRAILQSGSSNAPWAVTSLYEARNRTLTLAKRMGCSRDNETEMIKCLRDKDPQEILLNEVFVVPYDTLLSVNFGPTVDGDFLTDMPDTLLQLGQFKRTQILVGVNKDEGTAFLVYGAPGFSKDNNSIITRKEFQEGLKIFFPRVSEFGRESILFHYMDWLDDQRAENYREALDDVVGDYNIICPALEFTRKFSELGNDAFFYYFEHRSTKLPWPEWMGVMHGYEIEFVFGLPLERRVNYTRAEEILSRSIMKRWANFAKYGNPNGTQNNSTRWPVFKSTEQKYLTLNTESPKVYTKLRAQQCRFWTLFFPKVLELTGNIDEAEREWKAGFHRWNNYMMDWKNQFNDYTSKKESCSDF

The kcat is the maximal rate divided by the concentration of active sites. As to `CCCC(=O)SCC[N+](C)(C)C.[I-]` [BSCh, butyrylthiocholine iodide], in assay [1], the kcat was 663 s⁻¹.
As a reminder, the Ki is the equilibrium dissociation constant of an inhibitor or competing ligand from its target. With `CN(CC1CCCN(Cc2ccccc2)C1)S(=O)(=O)c1ccc2ccccc2c1` (centres unmarked) [compound 942, N-((1-benzylpiperidin-3-yl)methyl)-N-methylnaphthalene-2-sulfonamide], in assay [2] (association rate constant, 50 μM BSCh, 25 °C), the Kon is 6.2e+07 M⁻¹ s⁻¹ and 6.2 M⁻¹ s⁻¹. Also, in assay [2], the type of inhibition entry is reported as “tight binder”. The Ki in assay [2] (read-out: Ki) is 0.00043 µM.
For `C[N+](C)(C)C.[I-]` [Tetramethylammonium, tetramethylammonium iodide], the Ki in assay [2] (setting [3]) came out at 2400 µM. Also, in assay [2], the type of inhibition result is “reversible competitive inhibitors”.
Turning to `CC[N+](C)(C)c1cccc(O)c1` [Edrophonium, edrophonium chloride], in assay [2], the affinity, expressed as Ki, was 21 µM and the type of inhibition result is listed as “reversible competitive inhibitors”.
Turning to `CS(=O)(=O)F` [Methanesulfonylfluoride, methanesulfonylfluoride], in assay [2], the type of inhibition entry is listed as “irreversible inhibitor”. Also, the Kon in assay [2] (irreversible inhibition step, 15 mM MSF, 50 μM BSCh, 25 °C) was 0.39 s⁻¹.
For the molecule `COc1cc2c3cc1Oc1cc(ccc1O)C[C@@H]1c4c(cc(OC)c(O)c4Oc4ccc(cc4)C[C@@H]3N(C)CC2)CC[N+]1(C)C` [d-Tubocurarine], in assay [2], the Ki was found to be 5.1 µM and the type of inhibition entry was “slow binder”. In addition, in assay [2] (setting [4]), the “K+isomerization” value was found to be 0.029 s⁻¹ and the K-isomerization turned out to be 0.010 s⁻¹.
In the case of `CC[N+](CC)(CC)CC.[I-]` [Tetraethylammonium, tetraethylammonium iodide], the Ki in assay [2] (setting [3]) is 1500 µM. For the same molecule, in assay [2], the type of inhibition entry is recorded as “reversible competitive inhibitors”.
With `[I-].[Na+]` [sodium iodide], the “inhibition of BSCh hydrolysis” value in assay [2] (at 0.5 mM, data not shown) is on record as “no inhibition”.
For `[F-].[Na+]` [Sodium fluoride, sodium fluoride], the Ki in assay [2] (competitive component of mixed inhibition, from Figure 3, 0.25, 0.5, 1 and 2.5 mM sodium fluoride, 50 μM BSCh, read-out: Ki) turned out to be 830 µM. Moreover, in assay [2], the type of inhibition entry is given as “mixed reversible inhibitor”. In assay [2] (mixed inhibition model, Table 1), the “uncompetitive component stronger than the competitive component” value was determined as 2.4 fold. In assay [2] (uncompetitive component of mixed inhibition, from Figure 3, 0.25, 0.5, 1 and 2.5 mM sodium fluoride, 50 μM BSCh), the Kii is listed as 0.34 mM.
For `C[N+](C)(C)CCCCCCCCCC[N+](C)(C)C` [Decamethonium, decamethonium bromide], in assay [2], the Ki was determined as 7.6 µM and the type of inhibition entry is “reversible competitive inhibitors”.
